Measured values as given in ChEMBL document CHEMBL5725527, “Heterocyclic compounds and methods of their use” (2017).

Each molecule was assayed against T1, Type-2 angiotensin II receptor (Homo sapiens, UniProt P50052) (assay: AT2 Receptor Binding Assay: 120 μL membrane (5 mg protein/well) was incubated with 15 μL of [125I]-CGP42112A and 15 μL of compound at RT for 1.5 hrs. The binding reaction was stopped by rapid filtration through Unifilter GF/C plates (presoaked in 0.3% (v:v) BSA).Plate was washed three times with ice cold wash buffer.The filtration plates were dried at 37° C. overnight.50 μL of scintillation cocktail was added to each well.Radioactivity was determined using MicroBetaTriluxmicroplate scintillation counter.).
T1 sequence (P50052 whole entry): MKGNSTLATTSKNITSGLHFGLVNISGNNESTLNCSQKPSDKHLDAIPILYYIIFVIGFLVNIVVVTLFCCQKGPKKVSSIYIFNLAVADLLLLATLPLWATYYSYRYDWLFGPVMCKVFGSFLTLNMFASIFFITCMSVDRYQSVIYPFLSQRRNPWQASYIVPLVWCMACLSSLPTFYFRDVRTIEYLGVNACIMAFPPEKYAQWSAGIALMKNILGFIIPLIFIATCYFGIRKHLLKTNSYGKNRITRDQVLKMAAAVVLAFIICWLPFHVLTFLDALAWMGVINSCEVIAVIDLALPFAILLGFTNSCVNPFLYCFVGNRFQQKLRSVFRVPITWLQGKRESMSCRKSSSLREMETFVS

Structure (SMILES) | IC50 [µM]
COc1ccc2c(c1OCC#Cc1ccccc1)C[C@@H](C(=O)O)N(C(=O)C(c1ccccc1)c1ccccc1)C2 | 0.0962
O=C(O)[C@@H]1Cc2c(ccc(O)c2OCc2ccccc2)CN1C(=O)C(c1ccccc1)c1ccccc1 | 0.0335
COc1ccc2c(c1OCc1ccccc1)C[C@@H](C(=O)NS(=O)(=O)N(C)C)N(C(=O)C(c1ccccc1)c1ccccc1)C2 | 0.0109
COc1ccc2c(c1OCC#Cc1ccc(F)cc1)C[C@@H](C(=O)NS(=O)(=O)N(C)C)N(C(=O)C(c1ccccc1)c1ccccc1)C2 | 0.206
COc1ccc2c(c1OCC#Cc1ccc(F)cc1)C[C@@H](C(=O)O)N(C(=O)C(c1ccccc1)c1ccccc1)C2 | 0.133
COc1ccc2c(c1OCC#Cc1ccccc1)C[C@@H](C(=O)NS(=O)(=O)N(C)C)N(C(=O)C(c1ccccc1)c1ccccc1)C2 | 0.0795
